The record followed here is US20240043539A1, “METHODS OF INDUCING AN IMMUNOMODULATORY TUMOR RESPONSE” (CORNELL UNIVERSITY, priority 2020, published 2024).

What all share (format): cell-based, mouse
For test [1], the system named is Arg1-EYFP BMDMs co-cultured with oTME cells. How it is done:
FIGS. 6A-6H show a genome-wide pooled M2-like education screen in primary macrophages. […] Gene hits in EYFP″g BMDMs are highlighted in red. Distribution of LFC values (red lines) across all four sgRNAs of select gene targets (right). […] Arg1-EYFP BMDMs were co-cultured with oTME cells for 7 days, and then were treated with Abemaciclib (5, 10 μM) or DMSO for additional 7 days and analyzed by flow cytometry for EYFP (n=4 replicates). Data are shown as mean±SD., 2-tailed unpaired Student's t-test. […] Arg1-EYFP BMDMs were treated for 7 days with a cytokines cocktail consists of IL-4 (10 ng/mL), IL-13(80ng/mL), M-CSF(10 ng/mL) or with M-CSF alone as control (supplemented every 3 days). Cells were then treated with Abemaciclib (5 μM) or DMSO for additional 7 days and analyzed by flow cytometry for EYFP (n=3 replicates). Data are shown as mean±SD., 2-tailed unpaired Student's t-test. […] Cells then treated with PF-431369 (5 uM) or DMSO for additional 7 days. On day 14, cells were fixed and stained for Arg1 and CD206 and analyzed by flow cytometry. (n=3 replicates). Data are shown as mean±SD., 2-tailed unpaired Student's t-test. […]
Flow Cytometry and Fluorescence-Activated Cell Sorting (FACS): Flow cytometry data were collected using BD LSRFortessa, BD FACSCanto II, and BD FACSAria III was used for FACS-sort. […]

Test [2] relates to IL-4/IL-13-treated macrophages (BMDMs). Nature of the test: Arg1 expression in IL-4/IL-13-treated macrophages (absence of oTME cells), flow cytometry. Background: Flow cytometry measures light scatter and fluorescence of single cells or particles in a stream.
Test [3] deals with BMDMs plated with oTME cells. Description: EdU incorporation in macrophages following 48 hrs oTME education in the presence of Tyk2 inhibitors. The following applies: BMS-986165, 10 μM vs DMSO, EdU 10 μM. From the text:
FIGS. 3A-3H show the time course single-cell RNAseq analysis of macrophage TME-education. […] Cells were profiled after 2 and 10 days with the 10× Chromium single-cell RNA-seq platform. […] The figure legend is the same as FIG. 3B. FIG. 3D is a heatmap showing macrophage education expression dynamics of M-CSF-treated (n=214), early (day 2, n=235), late (day 10, n=301) genes. The cells are sorted and split into 20 equal-width bins by the education pseudo-time, average expression level (row-wise Z-score; color scale) of education signature genes (rows) across each bin (columns) is shown. The figure legend is the same as FIG. 3B. […] Genes are dotted and colored by logFC levels (color scale), the size of each dot represents the difference in the fraction of detection between the two groups. The p values were determined by Wilcoxon Rank Sum test. Vertical dotted lines represent ±0.75 logFC. Horizontal dotted lines represent p value of 0.01 (−log10 scale). […] Each dot represents an average of cells in 50 equal-width bins on the education pseudo-time axis, same as FIG. 3E. […] EdU incorporation was analyzed by flow cytometry (n=4 replicates). […]
EdU Incorporation: Cells were incubated with 10μM EdU (5-ethynyl-2′-deoxyuridine) without changing conditioned growth medium for the required duration and analyzed by flow cytometry according to the manufacturer's instructions (A10202; Thermo Fisher Scientific). […]

Test [4] deals with oTME macrophages (BMDMs). Nature of the test: γ-secretase inhibition: Ki67 in M2-educated (oTME) macrophages, flow cytometry. As to the method: BMDMs were co-cultured with oTME cells for 7 days and treated either with CompE ([…]) or DMSO as a control for additional 10 days. Cells were analyzed by flow cytometry for Ki67, F4/80, and CD11b. Data (n=3) are shown as mean±SD., 2-way ANOVA test, Bonferroni-corrected. FIG. 17D is a pre-clinical study design. […] Tumor sizes were recorded by caliper and shown as mean±SD., 2-way ANOVA test, Bonferroni-corrected. At the trial endpoint, lungs were collected and stained with H&E (right). […] At study endpoint, tumor transplants from (FIG. 17E) were scored for Ki67 in macrophages and in tumor cells (PyMT; mT^neg CD45^neg). Data are shown as mean±SD., 2-way ANOVA test, Bonferroni-corrected. Macrophage abundance quantified as percent of CD45+ cells. Data are shown as mean±SD., Mann-Whitney test. […]

For the compound `CN(c1ccccc1CNc1nc(Nc2ccc3c(c2)CC(=O)N3)ncc1C(F)(F)F)S(C)(=O)=O` [PF-431396], the Arg1 expression result was “robust suppression” in test [1] (oTME macrophages, 10 μM or DMSO for additional 7 days, EYFP by flow cytometry); “robust suppression” in test [2] (IL-4/IL-13-treated macrophages, 5 uM or DMSO for additional 7 days, stained for Arg1 and CD206). In the case of `CCN1CCN(Cc2ccc(Nc3ncc(F)c(-c4cc(F)c5nc(C)n(C(C)C)c5c4)n3)nc2)CC1` [abemaciclib, N-[5-[(4-ethylpiperazin-1-yl)methyl]pyridin-2-yl]-5-fluoro-4-(7-fluoro-2-methyl-3-propan-2-ylbenzimidazol-5-yl)pyrimidin-2-amine], the Arg1-EYFP expression entry in test [1] (oTME-educated Arg1-EYFP BMDMs, Abemaciclib (5, 10 μM) or DMSO for additional 7 days) is reported as “dose-dependent reduction”; in test [2] (IL-4/IL-13/M-CSF for 7 days, then Abemaciclib (5 μM) or DMSO for additional 7 days), “suppressed”. Turning to `[2H]C([2H])([2H])NC(=O)c1nnc(NC(=O)C2CC2)cc1Nc1cccc(-c2ncn(C)n2)c1OC` [Tyk2 inhibitors, 6-(cyclopropanecarbonylamino)-4-[2-methoxy-3-(1-methyl-1,2,4-triazol-3-yl)anilino]-N-(trideuteriomethyl)pyridazine-3-carboxamide], in test [3], the “EdU incorporation in oTME macrophages” value is recorded as “significantly decreased”. As to `C[C@H](NC(=O)Cc1cc(F)cc(F)c1)C(=O)N[C@H]1N=C(c2ccccc2)c2ccccc2N(C)C1=O` [Compound-E], the “reduction in Ki67 positivity” value in test [4] (7 days co-culture, then CompE or DMSO for additional 10 days) turned out to be 89.6±3.8%. In addition, in test [4] (oTME macrophages after treatment), the “expression of F4/80” value is reported as “increased”.
